For assay [1], the system named is rabbits with experimental WMD. As to the kind of experiment: Wet macular degeneration in rabbits with experimental WMD (Example 2). The conditions noted are these: injection into the vitreous humor, repeated as necessary. The format is in vivo, rabbit. The protocol:
To test the effect of the 21 amino acid IP-10 peptide (SEQ ID NO: 2) on wet macular degeneration (WMD), an experiment is conducted in rabbits with experimental WMD.
Rabbits are treated with IP-10 peptide (SEQ ID NO: 2), PF4, or a scrambled control peptide by injection into the vitreous humor. Rabbits are evaluated visually over time to evaluate the effect of each peptide. Injections are repeated as necessary.

The subject of assay [2] is rabbits with experimental glaucoma. Briefly: Restenosis following glaucoma treatment in rabbits with experimental glaucoma (Example 1). The format is in vivo, rabbit. The conditions noted are these: rabbits treated for glaucoma by drilling an anastomy; peptides injected into the aqueous humor. The protocol: To test the effect of the 21 amino acid IP-10 peptide (SEQ ID NO: 2) on restenosis following glaucoma treatment, an experiment is conducted in rabbits with experimental glaucoma.
Rabbits are treated with IP-10 peptide (SEQ ID NO: 2), PF4, or a scrambled control peptide. Rabbits are treated for glaucoma by drilling an anastomy. The peptides are then injected into the aqueous humor.
Changes in pressure are evaluated before and after treatment with the peptides.

From patent US11406687B2, “Activators of CXCR3 for the treatment of angiopathies of the eye” (University of Pittsburgh—Of the Commonwealth System of …, priority 2011, dated 2022) come the findings set out here.

On to “IP-10 peptide: 21 amino acid fragment of human IP-10, ESKAIKNLLKAVSKERSKRSP (listed as Homo sapiens)”, for which the “Effect on WMD, evaluated visually over time” value in assay [1] is listed as “inhibit the development of WMD and/or lead to a reversion of WMD”. For the same molecule, the “Changes in pressure before and after treatment with the peptides” value in assay [2] is listed as “prevent an increase in pressure”.

B1: PF4: 70-amino acid CXC chemokine released from alpha-granules of activated platelets; human PF4 sequence SEQ ID NO: 3 (protein, listed as Homo sapiens)
chain: EAEEDGDLQCLCVKTTSQVRPRHITSLEVIKAGPHCPTAQLIATLKNGRKICLDLQAPLYKKIIKKLLES
Take B1: the “Effect on WMD, evaluated visually over time” value in assay [1] was “inhibit the development of WMD and/or lead to a reversion of WMD”. The “Changes in pressure before and after treatment with the peptides” value in assay [2] was “prevent an increase in pressure”.
